Key:
PRMT5 = target: T1, PRMT5 (Homo sapiens, UniProt O14744); experiment: AlphaLISA PRMT5 methyltransferase assay (biotin-H4R3 substrate, SAM); type: biochemical; conditions: PRMT5 methyltransferase activity, FIG. 3C; read-out: IC50 binding affinities by AlphaLISA assay
T1 construct: Flag; made in house; host or cells: 293 cells
Description: For AlphaLISA HTS: the substrate, histone H4 peptide unmethylated at arginine (R) 3 (unmeH4R3) was purchased from AnaSpec (Fremont, CA). The 23-amino acid H4R3 peptide was biotinylated at its N′ terminus: […]-K(biotin)-NH2 (SEQ ID NO: 1). S-adenosyl methionine (SAM) was used as a methyl group donor (New England Biolabs, Ipswich, MA). Compound libraries comprising of FDA-approved drugs, synthetic and semi-synthetic natural products as well as bioactives were collectively purchased from Analyticon Discovery (Rockville, MD), MilliporeSigma (Burlington, MA) and Microsource Discovery Systems Inc (Gaylordsville, CT). Acceptor beads specific for dimethylated H4R3, Donor beads with a streptavidin tag, assay buffer, OptiPlate™ 384-well white bottom plates, TopSeal™-A film to seal the plates and EnVision® Multilabel Reader were sourced from PerkinElmer (Waltham, MA). […]
A detailed description of optimization of the AlphaLISA HTS screening protocol has already been published previously. […] Alpha signal was then quantified using the EnVision® reader.
To design a drug screen to check for compounds that had the potential to inhibit PRMT5 methyltransferase activity, the AlphaLISA assay was utilized. […] This emitted AlphaLISA signal is directly proportional to the methyltransferase activity of PRMT5, thus allowing for quantification of its enzymatic activity.

[1] = test system: PANC1, HT29 and MDA-MB231 cells; experiment: Three-dimensional (3D) colony formation assay; type: cell-based; conditions: increasing concentrations, 72 hours of drug treatment
Procedure: PANC1 and MDA-MB-231 (1000 cells) as well as HT29 (250 cells) were seeded per well within ultra-low attachment plates (Corning Inc) in media comprising 3% Reduced Growth Factor-Matrigel (BD Biosciences, Franklin Lakes, NJ). Clo and Can were added in a concentration range from 5-100 μM and 5-120 μM respectively after seeding for 48 hours. After 72 hours of drug treatment, the cells were stained using 10% Alamar blue dye (Fisher) and fluorescence was quantified using a Synergy H4 Reader.

[2] = test system: PANC1, HT29 and MCF7 xenografts; experiment: Xenograft tumor growth in NSG mice (PANC1, HT29, MCF7); type: in vivo; conditions: PANC1, HT29 or MCF7 xenografts, 100 mg/kg oral gavage daily
Procedure: (§1) Male and female NSG mice were obtained from the In Vivo Therapeutics Core at Indiana University School of Medicine. After acclimation for 7 days, NSG mice (5-6 weeks old) were xenografted with Mycoplasma-free PANC1, MCF7 or HT29 cells subcutaneously (1×10^7 PANC1, 3×10^6 MCF7 or 3×10^6 HT29 cells used per mouse in 0.2 ml of a 1:1 mix of serum free DMEM media, or serum free RPMI media and Matrigel). Male mice were xenografted with PANC1 and HT29 cells. Female mice were xenografted with MCF7 cells. 5 mice were randomized in each group when tumor volumes reached ˜50 mm^3. Mice were treated with either vehicle control (10% DMSO, 20% PEG400, 5% Tween 80 and 65% sterile water), 100 mg/kg or 200 mg/kg candesartan cilexetil dissolved in the vehicle, or 100 mg/kg or 200 mg/kg cloperastine dissolved in the vehicle through oral gavage daily. Tumor volumes were measured 4 times per week and body weights were measured twice a week. The study was performed in accordance with the guidelines and standards of the Institutional Animal Care and Use Committee (IACUC)

[3] = parameters: species or system mice; conditions: mouse, in vivo, po, 100 mg/kg
Procedure: as §1

[4] = test system: PDAC cells (PANC1, MiaPaCa2 and AsPC1); experiment: MTT cell viability assay, PDAC cells; type: cell-based; conditions: 4 days
Procedure: (§2) Cells were grown to 60% density in clear flat-bottom 96-well plates (Corning Inc, Corning, NY) for 24 hours and treated with a range of concentrations of either Clo or Can respectively, followed by incubation for 4 days. 10 μl of MTT dye (Sigma-Aldrich) was added to each well and incubated for 2 hours at 37° C. The media:MTT mixture was then removed and 10 μl DMSO was added per well. Absorbance was measured using Synergy H4 Multi-Mode Reader (BioTek Instruments, Winooski, VT).

[5] = test system: IL8 and TNFα mRNA expression; experiment: qRT-PCR of NF-κB target genes IL8 and TNFα; type: cell-based; conditions: PANC1, HT29 and MDA-MB-231 cells; 48 hours; vs untreated
Procedure: Following treatment with either Clo or Can for 48 hours, total RNA was isolated from the respective cell lines using Trizol as described earlier. First strand complementary DNA was generated using SuperScript III First-Strand Synthesis Kit (Invitrogen, Carlsbad, CA). Following this, qPCR was executed using FastStart Universal SYBR Green kit (Roche, Indianapolis, IN).

NF-κB activation = experiment: NF-κB luciferase assay; type: cell-based; conditions: increasing concentrations; PANC1, HT29 and MDA-MB-231 cells; 48 hours
Procedure: The NF-κB luciferase lentiviral construct pLA-NFκBmCMV-luc-H4-puro (containing five tandem copies of the NF-κB site from the IP10 gene) was introduced in the respective cell lines using Lipofectamine™ LTX Reagent and PLUS Reagents (Thermo Fisher Scientific). Luciferase activity was measured after 48 hours (with or without drug treatment) using Reporter Lysis Buffer kit (Promega, Madison, WI) as per manufacturer's instructions and the Synergy H4 Reader.

[6] = test system: CRC cell lines (HT29, HCT116 and DLD1); experiment: MTT cell viability assay, CRC cells; type: cell-based; conditions: 4 days
Procedure: as §2

[7] = test system: PRMT5-mediated R30 dimethylation of p65 (NF-κB); experiment: Western blot for symmetric dimethylation of p65 at R30; type: cell-based; conditions: PANC1, HT29 and MDA-MB-231 cells; treated at MTT IC50 values; vs untreated
Procedure: Primary antibodies for symmetric dimethylation at arginine (R) 30 subunit of p65 (detected by generating a customized polyclonal primary antibody in collaboration with GenScript Inc, Piscataway, NJ) and […] (Sigma-Aldrich) with their corresponding secondary antibodies were used.
PDAC, CRC and BC cells were pelleted post treatment with either Clo or Can in phosphate buffered saline (PBS). Pellets were lysed by overnight incubation at −80° C. as well as addition of lysis buffer [(10 mM Tris-Cl pH 8.0, 1 mM EDTA, 1% Triton X, 0.1% sodium deoxycholate, 0.1% SDS (sodium dodecyl sulfate), 14 mM NaCl, 1 mM phenylmethylsulfonyl fluoride]. Protein concentration for each sample was determined using Protein Assay Reagent (Biorad, Hercules, CA). Equal protein concentrations were run on a 10% SDS-PAGE (polyacrylamide gel electrophoresis) gel and transferred using polyvinylidene fluoride membrane (Thermo Fisher Scientific). Membranes were exposed to respective primary and secondary antibodies at dilutions and times based on manufacturer's instructions. Protein signal was detected using enhanced chemiluminescence (ECL) reagent (PerkinElmer).

[8] = test system: BC cells (MD-MB-231 and BT20); experiment: MTT cell viability assay, BC cells; type: cell-based; conditions: 4 days
Procedure: as §2

T1 sequence (O14744 whole entry): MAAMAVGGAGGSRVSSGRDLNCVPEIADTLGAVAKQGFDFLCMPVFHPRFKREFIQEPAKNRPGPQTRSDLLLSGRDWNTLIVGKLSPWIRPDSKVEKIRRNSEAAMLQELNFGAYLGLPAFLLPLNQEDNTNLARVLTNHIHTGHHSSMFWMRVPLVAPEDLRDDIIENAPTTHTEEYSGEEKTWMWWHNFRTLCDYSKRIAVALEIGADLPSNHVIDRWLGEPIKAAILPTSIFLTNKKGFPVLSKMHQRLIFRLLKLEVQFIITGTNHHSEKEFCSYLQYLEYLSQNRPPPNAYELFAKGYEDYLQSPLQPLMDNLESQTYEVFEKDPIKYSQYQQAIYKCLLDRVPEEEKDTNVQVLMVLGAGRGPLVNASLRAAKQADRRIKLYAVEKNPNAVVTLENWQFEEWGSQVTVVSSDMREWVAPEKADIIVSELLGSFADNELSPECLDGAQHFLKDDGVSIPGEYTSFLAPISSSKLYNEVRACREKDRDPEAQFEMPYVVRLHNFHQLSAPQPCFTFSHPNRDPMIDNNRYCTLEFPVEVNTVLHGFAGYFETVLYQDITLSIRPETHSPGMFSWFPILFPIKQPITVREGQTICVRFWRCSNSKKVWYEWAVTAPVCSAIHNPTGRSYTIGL
T1 sequence (Q9BQA1 whole entry partner): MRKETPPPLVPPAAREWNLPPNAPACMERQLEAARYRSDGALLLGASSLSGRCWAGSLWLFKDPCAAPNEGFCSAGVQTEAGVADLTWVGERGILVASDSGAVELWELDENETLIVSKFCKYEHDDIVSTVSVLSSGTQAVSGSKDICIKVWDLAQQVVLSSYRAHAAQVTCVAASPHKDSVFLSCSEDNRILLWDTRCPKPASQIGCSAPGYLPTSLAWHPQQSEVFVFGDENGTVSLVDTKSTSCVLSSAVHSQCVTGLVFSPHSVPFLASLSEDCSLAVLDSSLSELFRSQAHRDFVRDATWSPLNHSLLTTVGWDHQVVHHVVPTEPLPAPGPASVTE

In the case of `CCOc1nc2cccc(C(=O)OC(C)OC(=O)OC3CCCCC3)c2n1Cc1ccc(-c2ccccc2-c2nn[nH]n2)cc1` (centres unmarked) [Can, Candesartan cilexetil], the IC50 (PRMT5) is reported as 33 µM, the “extent of 3D colony formation” value [1] is reported as “marked decrease” and the “tumor sizes over time relative to control mice” value [2] is reported as “remarkably reduced tumor sizes”. The “body weights over the course of treatment” value [3] was “body weights remained similar”, the IC50 [4] was about 20 µM and the “mRNA expression of IL8 and TNFα” value [5] was “significant decrease”. For the same compound, the “activation of NF-κB (luciferase)” value (NF-κB activation) was “concurrent decrease”, the IC50 [6] was 15 to 17 µM and the “dimethylation levels at R30 of p65” value [7] was “reduction in the dimethylation levels at R30”. The IC50 [8] was 18 to 20 µM.

For `Cl.Clc1ccc(C(OCCN2CCCCC2)c2ccccc2)cc1` (centres unmarked) [Clo, Cloperastine hydrochloride], the IC50 (PRMT5) was 27 µM, the “extent of 3D colony formation” value [1] was “marked decrease” and the “tumor sizes over time relative to control mice” value [2] was “significantly reduced tumor sizes”. For the same compound, the “body weights over the course of treatment” value [3] was “body weights remained similar”, the IC50 [4] was about 30 µM and the “mRNA expression of IL8 and TNFα” value [5] was “significant decrease”. For the same compound, the “activation of NF-κB (luciferase)” value (NF-κB activation) was “concurrent decrease”, the IC50 [6] was 18 to 34 µM and the “dimethylation levels at R30 of p65” value [7] was “reduction in the dimethylation levels at R30”. It also gave an IC50 [8] of 26 to 29 µM.
